Source: patent US20240018166A1, “SULFONYL UREA NLRP3 INFLAMMASOME INHIBITORS” (Venatorx Pharmaceuticals, Inc., priority 2020, published 2024)

Experiments:
[1] = MTT cell viability assay, HepG2 cells; assay type: cell-based; conditions: human, read-out: HepG2 Cytotoxicity CC50
Description: In order to assess the cytotoxicity of the compounds, an MTT cell viability assay was performed in either unstimulated THP-1 or HepG2 cells as follows. 5×10^4 THP-1 or 5×10^3 HepG2 cells were seeded into each well of a 96-well plate in 90 μL of media. Compounds were added to cells as described for the IL-10 assay and returned to the incubator for an additional 72 hours. Next, 25 μL of MTT solution (5 mg/mL in sterile PBS) was added to each well. Plates were incubated for 3 hours at 37° C., 5% CO2. Next, for THP-1 cells, 100 μl of MTT solubilization solution (40% Dimethylformamide, 2% glacial acetic acid, 16% sodium dodecyl sulfate) was then added to each well and plates were incubated at room temperature in the dark overnight. For HepG2 cells, media was aspirated, 50 μL of DMSO was added and plates were mixed briefly with an orbital plate shaker. Absorbance at 570 nm was measured using a Perkin-Elmer EnVision plate reader.
Absorbance values were converted to percentage of vehicle-treated controls. Data was then analyzed using a non-linear regression (variable slope (four-parameter)) equation in GraphPad Prism 7.0. […]

[2] = tested on: IL-1β; experiment: IL-1β inhibition assay (ELISA/HTRF of culture supernatants); assay type: cell-based; conditions: Homo sapiens, PMA-differentiated THP-1 cells, tested 10 μM to 0.003 μM
In short: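 PMA-differentiated THP-1 cells treated at final compound concentrations of 10 μM to 0.003 μM; supernatant IL-1β quantified by Quantikine ELISA or HTRF. Background-subtracted values expressed as % of vehicle controls; EC50 from four-parameter variable-slope nonlinear regression.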

[3] = MTT cell viability assay, THP-1 cells; assay type: cell-based; conditions: human, unstimulated THP-1 cells, read-out: THP-1 Cytotoxicity CC50
In short: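 Unstimulated THP-1 (5×10^4/well) or HepG2 (5×10^3/well) cells exposed to compound for 72 h, then MTT 3 h at 37 °C. Formazan solubilised overnight in DMF/acetic acid/SDS (THP-1) or in DMSO (HepG2); absorbance 570 nm. CC50 by four-parameter fit of percent vehicle control.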

[4] = target: T1, IL-1 (Homo sapiens, UniProt P01584); conditions: cited from earlier work
T1 construct: host or cells: patients (in vivo)

| EC50 [2] [µM] | Compound | CC50 at 72 h [1] [µM] | CC50 at 72 h [3] [µM] | incidence of fatal infection ([4]; CANTOS trial) | reduction in total cancer mortality (mostly lung cancer) compared to placebo ([4]; high-dose) [%] |
| --- | --- | --- | --- | --- | --- |
| > 10 | CC(C)c1cc(C#N)c(F)c(C(C)C)c1NC(=O)NS(=O)(=O)c1ccc2c(c1)C(O)OB2O (centres unmarked) [Example 52, N-((4-cyano-3-fluoro-2,6-diisopropylphenyl)carbamoyl)-1,3-dihydroxy-1,3-dihydrobenzo[c][1,2]oxaborole-5-sulfonamide] | > 10 | > 10 | – | – |
| 1 to 10 | COc1cc(-c2ccc3c(c2NC(=O)NS(=O)(=O)c2ccc4c(c2)C(O)OB4O)CCC3)ccn1 (centres unmarked) [Example 53, 1,3-dihydroxy-N-((5-(2-methoxypyridin-4-yl)-2,3-dihydro-1H-inden-4-yl)carbamoyl)-1,3-dihydrobenzo[c][1,2]oxaborole-5-sulfonamide] | > 10 | > 10 | – | – |
| > 10 | O=C(Nc1c2c(cc3c1CCC3)CCC2)NS(=O)(=O)c1ccc2c(c1)C(O)OB2O (centres unmarked) [Example 54, N-((1,2,3,5,6,7-hexahydro-s-indacen-4-yl)carbamoyl)-1,3-dihydroxy-1,3-dihydrobenzo[c][1,2]oxaborole-5-sulfonamide] | > 10 | > 10 | – | – |
| < 1 | COc1cc(-c2ccc3c(c2NC(=O)NS(=O)(=O)c2ccc4c(c2)C(C)OB4O)CCC3)ccn1 (centres unmarked) [Example 55, 1-hydroxy-N-((5-(2-methoxypyridin-4-yl)-2,3-dihydro-1H-inden-4-yl)carbamoyl)-3-methyl-1,3-dihydrobenzo[c][1,2]oxaborole-5-sulfonamide] | > 10 | > 10 | – | – |
| 1 to 10 | CC(C)c1cc(C#N)c(F)c(C(C)C)c1NC(=O)NS(=O)(=O)c1ccc2c(c1)C(C)OB2O (centres unmarked) [Example 56, N-((4-cyano-3-fluoro-2,6-diisopropylphenyl)carbamoyl)-1-hydroxy-3-methyl-1,3-dihydrobenzo[c][1,2]oxaborole-5-sulfonamide] | > 10 | > 10 | – | – |
| 1 to 10 | CC1(C)OB(O)c2ccc(S(=O)(=O)NC(=O)Nc3c4c(cc5c3CCC5)CCC4)cc21 [Example 57, N-((1,2,3,5,6,7-hexahydro-s-indacen-4-yl)carbamoyl)-1-hydroxy-3,3-dimethyl-1,3-dihydrobenzo[c][1,2]oxaborole-5-sulfonamide] | > 10 | > 10 | – | – |
| 1 to 10 | CC(CCB1O[C@@H]2C[C@@H]3C[C@@H](C3(C)C)[C@]2(C)O1)n1ccc(S(=O)(=O)NC(=O)Nc2c3c(cc4c2CCC4)CCC3)n1 (stereo partly drawn) [Example 60, N-((1,2,3,5,6,7-hexahydro-s-indacen-4-yl)carbamoyl)-1-(4-((3aS,4S,6S,7aR)-3a,5,5-trimethylhexahydro-4,6-methanobenzo[d][1,3,2]dioxaborol-2-yl)butan-2-yl)-1H-pyrazole-3-sulfonamide] | > 10 | > 10 | – | – |
| < 1 | CC(CCn1ccc(S(=O)(=O)NC(=O)Nc2c3c(cc4c2CCC4)CCC3)n1)CB1OC(C)(C)C(C)(C)O1 (centres unmarked) [Example 61, N-((1,2,3,5,6,7-hexahydro-s-indacen-4-yl)carbamoyl)-1-(3-methyl-4-(4,4,5,5-tetramethyl-1,3,2-dioxaborolan-2-yl)butyl)-1H-pyrazole-3-sulfonamide] | > 10 | > 10 | – | – |
| < 1 | CC(C)(CCn1ccc(S(=O)(=O)NC(=O)Nc2c3c(cc4c2CCC4)CCC3)n1)B1OC(C)(C)C(C)(C)O1 [Example 62, N-((1,2,3,5,6,7-hexahydro-s-indacen-4-yl)carbamoyl)-1-(3-methyl-3-(4,4,5,5-tetramethyl-1,3,2-dioxaborolan-2-yl)butyl)-1H-pyrazole-3-sulfonamide] | > 10 | > 10 | – | – |
| – | canakinumab: the neutralizing IL-10 antibody canakinumab (anti-IL-1, Novartis) | – | – | higher incidence of fatal infection | > 50 |
